Tested on: PMA/ionomycin-stimulated peripheral blood mononuclear cell (PBMC)
Assay: Inhibition of PMA/ionomycin-stimulated peripheral blood mononuclear cell proliferation
Format: cell-based
Settings: human PBMC from a single donor, 10% human serum, PMA 0.5 ng/ml and ionomycin 500 ng/ml, 72 hours, 3H-thymidine incorporation; read-out: IA50 (the source's name)
Procedure: The ability of compounds which can inhibit PMA/ionomycin-stimulated peripheral blood mononuclear cell proliferation can be assessed, for example using the procedure set out below:
Inhibition of PMA/ionomycin-stimulated Peripheral Blood Mononuclear Cell Proliferation
The assay for PMA/ionomycin-stimulated PBMC proliferation was performed in 96-well flat bottomed microtitre plates. Compounds were prepared as 10 mM stock solutions in dimethyl sulfoxide. A 50-fold dilution of this was prepared in RPMI and serial dilutions were prepared from this solution. 10 μl of the 50-fold diluted stock, or dilutions of it, were added to the well to give concentrations in the assay starting at 9.5 μM and going down. Into each well was placed 1×10^5 PBMC, prepared from human peripheral blood from a single donor, in RPMI1640 medium supplemented with 10% human serum, 2 mM glutamine and penicillin/streptomycin. Phorbol myristate acetate (PMA) (0.5 ng/ml final concentration) and ionomycin (500 ng/ml final concentration) were added to these cells in supplemented RPMI1640 medium (as above) so that the final volume of the assay was 0.2 ml. […] The level of radioactivity incorporated by the cells was then determined and this is a measure of proliferation.

Structure (SMILES): CC(C)n1c(=O)n(C)c(=O)c2c(C(=O)N3C[C@H](O)CO3)c(Cc3ccnc4ccccc34)sc21 [Example 20, (S) 5-{4-Hydroxyisoxazolidin-2-ylcarbonyl}-3-methyl-1-(isopropyl)-6-(4-quinolinylmethyl)thieno[2,3-d]pyrimidine-2,4(1H,3H)-dione]
- IC50: 5 nM
